Test results: patent publication US8008491B2, “Substituted AZA-indoles as inhibitors of poly(ADP-ribose) polymerase (PARP)” (Aventis Pharmaceuticals, Inc., priority 2003, dated 2011)
Counter-ions that a name gives are not always drawn.

Experiments:
human PARP (PARP1) [1] = target: T1, human PARP (PARP1) (Homo sapiens, UniProt P09874); assay: Radioactivity enzyme assay: incorporation of labeled NAD into acid-precipitated protein; type: biochemical; settings: reference compounds, NAD 200 μm
From the text: Full length human PARP (PARP1) is assembled from PCR fragments of a clone from a human brain cDNA library and two Incyte clones. The PARP gene (3046 bp) is sub-cloned into pFastBac-HTb vector to give PARP-pFastBac-HTh and the sequence of this clone is verified. PARP-pFastBac-HTb is expressed to obtain protein using the Bac-to-Bac expression protocol from Gibco-BRL. The recombinant virus generated is used to scale up the material for purification.
Cell pellets from cell broth of cells expressing PARP are treated with a cocktail of protease inhibitors and lysed by 4 freeze-thaw cycles. The material is suspended in 10 mM HEPES/0.1M NaCl/pH 7.2, stirred, and then centrifuged. A 40%-70% ammonium sulfate cut of protein pellet is obtained from the supernatant. The pellet is solubilized in 10 mM HEPES/pH 7.2 and centrifuged. The supernatant buffer is exchanged to 10 mM HEPES/pH 7.2/0.1M NaCl/25% glycerol by dialysis or with a desalting column. The enzyme preparation is stored at −20° C. until use.
Incorporation of radioactivity from labeled NAD into acid-precipitated protein is measured. […] After washing with TCA and ethanol, the filter is dried and counted for tritium CPM after addition of scintillation fluid.

human PARP (PARP1) [2] = target: T1, human PARP (PARP1); assay: PARP enzyme assay of Table 3 (radioactive enzyme assay or 'ELISA' enzyme assay); settings: IC50 (μM), fifty percent inhibitory concentration; recombinant human PARP;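 also: Baculovirus-expressed PARP1 from insect cells, activity read as tritium from labeled NAD in acid-precipitated protein, or as biotin-NAD built into plate-bound histone by absorbance at 450 nm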
Description: The compounds of this invention are then tested with this enzyme preparation using either the radioactive enzyme assay or by the “ELISA” enzyme assay as set forth below.
Incorporation of radioactivity from labeled NAD into acid-precipitated protein is measured. The reaction mixture (volume 100 μL or 50 μL, in a test-tube or 96-well plate) contained 100 μg/mL calf thymus DNA (sonicated), 100 μg/mL histones, 100 mM Tris (pH 8.0), 1.0 mM DTT, 10 mM MgCl2, NAD (200 μm, 0.65 microcurie/mL), and varying amounts of enzyme. The reaction was incubated for 10 min at 37° C. or at room temperature for 60 min. The reaction was stopped and protein precipitated by addition of ice-cold trichloroacetic acid (TCA; 10% or 20% aqueous w/v). After brief storage in ice or at 4° C. for 2 hrs, the reaction mixture is filtered under vacuum through a glass fiber filter (2.5 cm disc, or 96-well filter plate). After washing with TCA and ethanol, the filter is dried and counted for tritium CPM after addition of scintillation fluid.
Incorporation of biotin-NAD into histone coated on plate is measured. A 96-well protein-binding EIA plate is coated with histone and blocked with bovine serum albumin. The reaction mixture (50 μL) contained DNA, buffer, enzyme, (test compound), and 250 μM of NAD and 5 μL of biotin-NAD (Trevigen). After reaction at room temperature the wells are washed and treated with Extravidin (Sigma). After incubation and washing color is developed with the peroxidase substrate TMB (Sigma). The TMB reaction is quenched with 2M sulfurric acid and the absorbance at 450 nm is read.

[3] = test system: HL-60 (human leukemia) cells; assay: Cell-based assay: protection from cell death induced by serum deprivation (Alamar Blue); settings: median effective concentration preventing cell death, HL-60, 0.1% FCS, 24 hr
Description: HL-60 (human leukemia) cells are grown and maintained using standard procedures in RPMI 1640+Glutamax medium supplemented with 10% fetal calf serum (FCS). For assay, cells are suspended in medium supplemented with 0.1% FCS at 0.5 million cells/mL and seeded into 96 well plates (100 μL/well). After preincubation for 3 hrs, cells are treated with compound for 1 hr, then Alamar Blue (Serotec) is added to the cells. After a further 24 hr incubation, fluorescence is measured (ex 560 nm, em 590 nm). Decrease in fluorescence compared to control cells (10 μM of a potent PARP inhibitor) is a measure of cell death. Increased fluorescence in the presence of test compound indicates protection from cell death induced by serum deprivation. For detection of polyADP-ribosylation, cells are subjected to serum deprivation in the presence and absence of compound. Cells are lysed and proteins are run on an SDS-PAGE gel. PolyADP-ribosylated proteins are detected with antibody to polyADP-ribose (Alexis or Calbiochem).
The results obtained from this study are expressed as EC50 (median effective concentration of the test compound that was effective in preventing the cell death—expressed in micromolar (μM) concentration) for each of the tested compounds and are summarized in Table 4.

Male Fisher 344 rats = assay: Stroke model: middle cerebral artery (MCA) occlusion, infarct volume; type: in vivo, rat; settings: total dose 40 mg/kg i.v. (10 mg/kg bolus plus 5 mg/kg/hr for 6 hrs) 15 min after MCA occlusion; 48 hours post-occlusion
Description: Male Fisher 344 rats are anesthetized. The right carotid artery is isolated and ligated, and the right jugular vein is canulated for compound administration. The middle cerebral artery (MCA) was exposed through a craniotomy, and the MCA and its right branch, the lenticulostriate artery are electrocoagulated. The arteries are cut to avoid recanalization. […] The compounds are given as a 10 mg/kg bolus followed by an infusion of 5 mg/kg/hr for 6 hrs (total dose 40 mg/kg).
48 Hours post-MCA occlusion the rats are sacrificed, and the brains removed and cut into 2-mm coronal sections.
A total dose of 40 mg/kg of 2-(piperazin-1-yl)-1-phenyl-1H-indole-3-carboxaldehyde (Example 3) is given as bolus plus infusion as described above.

Male Sprague-Dawley rats = assay: Myocardial ischemia model: coronary artery occlusion and reperfusion, infarct size; type: in vivo, rat; settings: 20 min occlusion, 60 min reperfusion; for infarct size (% of area at risk), effect when given prior to reperfusion: 10 mg/kg i.v. 5 min prior to reperfusion (Example 3); for infarct size (% of area at risk), effect when given prior to ischemia: 10 mg/kg i.v. 10 min prior to occlusion (Example 3)
From the text: Male Sprague-Dawley rats are anesthetized and the chest is opened. A thin silk thread is placed around the left anterior descending coronary artery. The silk is passed through a plastic tube and the chest is closed. After stable hemodynamics, the coronary artery is occluded by applying tension to the thread via the tube. Successful occlusion is confirmed by a decrease in systolic blood pressure and alterations in ECG. Reperfusion is initiated by releasing the tension on the ligature.
For testing efficacy of Example 3 in this animal model, animals are divided into three groups. One group received the compound of Example 3 at 10 mg/kg i.v. 10 min prior to occlusion. A second group received compound of Example 3 at the same dose 5 min prior to reperfusion. The third group served as vehicle control. The period of occlusion is 20 min, followed by reperfusion for 60 min. After sacrifice infarct size is measured by staining of heart tissue slices with triphenyltetrazolium chloride and expressed as a percent (%) of area at risk.
A similar study is carried out with cariporide, a reference standard.

T1 sequence (P09874 whole entry): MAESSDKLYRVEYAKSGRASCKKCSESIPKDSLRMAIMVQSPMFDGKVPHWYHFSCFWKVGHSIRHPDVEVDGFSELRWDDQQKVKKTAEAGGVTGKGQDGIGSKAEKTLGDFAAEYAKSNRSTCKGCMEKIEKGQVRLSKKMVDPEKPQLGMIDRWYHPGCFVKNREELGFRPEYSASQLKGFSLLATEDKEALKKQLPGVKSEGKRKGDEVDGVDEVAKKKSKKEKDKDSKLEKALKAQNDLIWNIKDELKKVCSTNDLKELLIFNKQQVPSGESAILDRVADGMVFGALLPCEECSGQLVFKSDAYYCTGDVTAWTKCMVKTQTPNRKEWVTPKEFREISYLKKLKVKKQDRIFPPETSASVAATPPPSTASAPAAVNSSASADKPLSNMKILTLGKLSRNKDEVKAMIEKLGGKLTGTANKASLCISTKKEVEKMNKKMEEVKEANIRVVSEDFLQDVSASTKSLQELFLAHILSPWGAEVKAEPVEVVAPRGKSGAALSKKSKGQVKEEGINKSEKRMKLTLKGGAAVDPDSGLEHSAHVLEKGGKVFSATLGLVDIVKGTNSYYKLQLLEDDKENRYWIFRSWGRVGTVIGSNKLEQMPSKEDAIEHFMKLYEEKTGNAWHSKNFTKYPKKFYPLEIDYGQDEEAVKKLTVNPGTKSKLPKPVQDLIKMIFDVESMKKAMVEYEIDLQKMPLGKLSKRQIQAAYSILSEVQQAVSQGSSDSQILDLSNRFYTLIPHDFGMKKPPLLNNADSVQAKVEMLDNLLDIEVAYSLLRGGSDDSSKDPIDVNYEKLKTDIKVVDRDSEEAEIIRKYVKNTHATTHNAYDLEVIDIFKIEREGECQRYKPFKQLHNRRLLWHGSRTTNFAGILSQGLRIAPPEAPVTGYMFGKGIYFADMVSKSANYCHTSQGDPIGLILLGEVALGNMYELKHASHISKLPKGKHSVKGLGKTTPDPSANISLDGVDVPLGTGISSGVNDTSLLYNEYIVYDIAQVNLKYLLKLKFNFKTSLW

Row | Structure (SMILES) | IC50 (human PARP (PARP1) [2]) [µM] | other results
1 | O=Cc1c(N2CCNCC2)n(Cc2ccccc2)c2ccccc12 | – | melting point: 163 to 165 °C
2 | Oc1cccc2c(O)nccc12 [1,5-isoquinolinediol] | – | IC50 (human PARP (PARP1) [1]): 1000 nM
3 | O=Cc1c(N2CCN(CCO)CC2)n(-c2ccccc2)c2ccccc12 [Example 2, 2-[4-(2-hydroxyethyl)piperazin-1-yl]-1-phenyl-1H-indole-3-carboxaldehyde] | 4.6 | EC50 [3]: 3400 nM
4 | O=Cc1c(N2CCNCC2)n(-c2ccccc2)c2ccccc12 [Example 3, 2-(Piperazin-1-yl)-1-phenyl-1H-indole-3-carboxaldehyde] | 2.5 | reduction in infarct volume (Male Fisher 344 rats): 40-50%; infarct size (% of area at risk), effect when given prior to reperfusion (Male Sprague-Dawley rats): small but significant effect; infarct size (% of area at risk), effect when given prior to ischemia (Male Sprague-Dawley rats): significant protection; EC50 [3]: 1900 nM
5 | Cn1c(N2CCNCC2)c(C=O)c2ccccc21 [Example 9, 2-(Piperazin-1-yl)-1-methyl-1H-indole-3-carboxaldehyde] | 27.5 | EC50 [3]: 8000 nM
6 | O=Cc1c(N2CCNCC2)n(-c2ccsc2)c2ccccc12 [Example 12, 2-(Piperazin-1-yl)-1-(thien-3-yl)-1H-indole-3-carboxaldehyde] | 2 | EC50 [3]: 3000 nM
7 | O=Cc1c(N2CCNCC2)n(-c2ccc(-c3ccccc3)cc2)c2ccccc12 [Example 47, 1-(Biphenyl-4-yl)-2-piperazin-1-yl-1H-indole-3-carboxaldehyde Hydrochloride] | 6.9 | –
8 | CCc1ccc(-n2c(N3CCNCC3)c(C=O)c3ccccc32)cc1 [Example 48, 1-(4-Ethylphenyl)-2-(piperazin-1-yl)-1H-indole-3-carboxaldehyde Hydrochloride] | 15.5 | –
9 | O=Cc1c(N2CCNCC2)n(-c2cccc(Br)c2)c2ccccc12 [Example 49, 1-(3-Bromophenyl)-2-piperazin-1-yl-1H-indole-3-carboxaldehyde] | 1.9 | –
10 | Cc1ccc(-n2c(N3CCNCC3)c(C=O)c3ccccc32)cc1[N+](=O)[O-] [Example 50, 1-(4-Methyl-3-nitrophenyl)-2-(piperazin-1-yl)-1H-indole-3-carboxaldehyde] | 1.4 | –
11 | CN(C)c1ccc(-n2c(N3CCNCC3)c(C=O)c3ccccc32)cc1 [Example 51, 1-(4-Dimethylaminophenyl)-2-piperazin-1-yl-1H-indole-3-carboxaldehyde] | 26 | –
12 | O=Cc1c(N2CCNCC2)n(-c2ccc(Oc3ccccc3)cc2)c2ccccc12 [Example 52, 1(4-Phenoxyphenyl)-2-(piperazin-1-y)l-1H-indole-3-carboxaldehyde] | 42.2 | –
13 | Cc1ccc(-n2c(N3CCNCC3)c(C=O)c3ccccc32)cc1 [Example 53, 1-(4-Methylphenyl)-2-(piperazin-1-yl)-1H-indole-3-carboxaldehyde] | 19.9 | –
14 | O=Cc1c(N2CCNCC2)n(-c2ccc(F)cc2)c2ccccc12 [Example 54, 1-(4-Fluorophenyl)-2-(piperazin-1-yl)-1H-indole-3-carboxaldehyde Hydrochloride] | 3.1 | –
15 | O=Cc1c(N2CCNCC2)n(-c2cccc(Cl)c2)c2ccccc12 [Example 55] | 4.1 | –
16 | C=Cc1ccc(-n2c(N3CCNCC3)c(C=O)c3ccccc32)cc1 [Example 56, 2-(Piperazin-1-yl)-1-(4-vinylphenyl)-1H-indole-3-carboxaldehyde] | 1.5 | –
17 | O=Cc1c(N2CCNCC2)n(-c2cccc(CO)c2)c2ccccc12 [Example 57, 1-(3-Hydroxymethylphenyl)-2-(piperazin-1-yl)-1H-indole-3-carboxaldehyde] | 1.4 | –
18 | CCOc1cccc(-n2c(N3CCNCC3)c(C=O)c3ccccc32)c1 [Example 58, 1-(3-Ethoxyphenyl)-2-(piperazin-1-yl)-1H-indole-3-carboxaldehyde] | 0.85 | –
19 | CCCCc1ccc(-n2c(N3CCNCC3)c(C=O)c3ccccc32)cc1 [Example 61, 1-(4-Butylphenyl-2-(piperazin-1-yl)-1H-indole-3-carboxaldehyde Hydrochloride] | 2.7 | –
20 | CC(=O)Nc1cccc(-n2c(N3CCNCC3)c(C=O)c3ccccc32)c1 [Example 62, N-{3-[3-Formyl-2-(piperazin-1-yl)-indol-1-yl]phenyl}-acetamide Hydrochloride] | 0.99 | –
21 | N#Cc1ccc(-n2c(N3CCNCC3)c(C=O)c3ccccc32)cc1 [Example 63, 4-[3-Formyl-2-(piperazin-1-yl)-indol-1-yl]-benzonitrile] | 2.3 | –
22 | CC(C)c1ccc(C(=O)NC(=N)N)cc1S(C)(=O)=O [cariporide, reference compound] | – | infarct size (% of area at risk), effect when given prior to reperfusion (Male Sprague-Dawley rats): no effect; infarct size (% of area at risk), effect when given prior to ischemia (Male Sprague-Dawley rats): significant protection
